Active and inactive are the calls of the source. The calls are words filed in the database; no cut-off is given here.

In ChEMBL document CHEMBL1134571, “Photochemical synthesis of N-arylbenzophenanthridine selective estrogen receptor modulators (serms)” (J Med Chem, 2001) one finds NA and IC50 data, which are given here for seven molecules.

For assay [1], the target named is Estrogen receptor (Homo sapiens) (UniProt Q92731+P03372). The assay is described as follows: Relative binding affinity(RBA) as displacement of [3H]17-beta-estradiol from MCF-7 cell lysate;NA=not active. The class given is cell-based.
The subject of assay [2] is MCF7. Description: Inhibition of 17-beta-estradiol induced MCF-7 cell proliferation;NA=not active. As to conditions: Homo sapiens. The class given is functional, cell-based.
Assay [3] has as its system MCF7. The assay is described as follows: Inhibition of 17-beta-estradiol induced MCF-7 cell proliferation. As to conditions: Homo sapiens. The class given is functional, cell-based.
For assay [4], the system named is MCF7. Description: Inhibition of 17-beta-estradiol induced MCF-7 cell proliferation; NA=not active. The assay is classed as functional, cell-based. Conditions: Homo sapiens.

With `COc1ccc2c(ccc3c4ccc(OC)cc4c(=O)n(-c4ccc(OCCN5CCCCC5)cc4)c23)c1`, the NA result (in assay [1]; in the assay on MCF7 [2]) was “inactive” in each case.
What is called IC50 is the point on the concentration scale where inhibition reaches its midpoint. Read a low IC50 as higher potency. `COc1ccc2c(c1)CN(c1ccc(OCCN3CCCCC3)cc1)c1c-2ccc2cc(OC)ccc12`: the IC50 in the assay with MCF7 [3] came out at 19 nM.
The same measure, in the same setting: the figure for `Oc1ccc2c(c1)CN(c1ccc(OCCN3CCCCC3)cc1)c1c-2ccc2cc(O)ccc12` is 1 nM.
Still for that read-out and setting: the figure for `O=c1c2cc(O)ccc2c2c(n1-c1ccc(OCCN3CCCCC3)cc1)-c1ccc(O)cc1CC2` is 128 nM; for `COc1ccc2c(c1)CN(c1ccc(OCCN3CCCCC3)cc1)C1=C2CCc2cc(OC)ccc21` it is 287 nM.
On to `C[C@]12CC[C@@H]3c4ccc(O)cc4CC[C@H]3[C@@H]1CC[C@@H]2O`, for which the NA result in the assay with MCF7 [4] is “inactive”.
Consider `O=c1c2cc(O)ccc2c2ccc3cc(O)ccc3c2n1-c1ccc(OCCN2CCCCC2)cc1`, for which the NA result in the assay with MCF7 [2] is “inactive”.
